Marks after values point to notes of the source that are not given here.
Assays:
[1] = system: CYP3A4; experiment: Isolated perfused rat liver, tramadol N-demethylation to M2 after MDMA or paroxetine pretreatment; format: in vivo; settings: regular doses of MDMA (1-10 mg/kg)
[2] = system: CYP2D6; experiment: Isolated perfused rat liver, tramadol O-demethylation to M1 after MDMA or paroxetine pretreatment; format: in vivo; settings: tramadol 1 µg/mL, n=4; for Metabolite ratio M1 % decrease compared to the control group: AUC0-t M1 / AUC0-t tramadol
[3] = design: method as in doi:10.1007/s002130000545, PMID 12404536, PMID 12869661; settings: following ecstasy consumption; cited from earlier work
[4] = Isolated perfused rat liver, tramadol AUC in perfusate after MDMA or paroxetine pretreatment; format: in vivo; settings: MDMA 1, 5 and 10 mg/kg i.p.; tramadol 1 µg/mL

SMILES	CYP3A4 activity inhibition [1]	AUC M1 % decrease compared to the control group ([2]; MDMA 1 mg/kg i.p. 1 h before liver perfusion) [%]	Metabolite ratio M1 % decrease compared to the control group ([2]; MDMA 1 mg/kg i.p.) [%]	AUC M1 % decrease compared to the control group ([2]; MDMA 10 mg/kg i.p. 1 h before liver perfusion) [%]	Metabolite ratio M1 % decrease compared to the control group ([2]; MDMA 10 mg/kg i.p.) [%]	duration of positive psychological effects [3]	tramadol AUC compared to the control group [4]	AUC M1 % decrease compared to the control group ([2]; paroxetine 0.266 mg/kg oral, three consecutive days, listed as PXL)	Metabolite ratio M1 % decrease compared to the control group ([2]; paroxetine 0.266 mg/kg oral, three days) [%]	Metabolite ratio M1 % decrease compared to the control group ([2]; paroxetine 0.266 mg/kg oral, three days, listed as PXL)
CNC(C)Cc1ccc2c(c1)OCO2 (stereo not shown) [MDMA, methylenedioxymethamphetamine]	cannot inhibit	38	29	50	45	3-6 hours	no significant differences	–	–	–
Fc1ccc([C@@H]2CCNC[C@H]2COc2ccc3c(c2)OCO3)cc1 [paroxetine]	–	–	–	–	–	–	–	40* %	30	30* %

Source: publication PMC8421619, “Investigation of MDMA Inhibitory Effect on CytochromeP450 3A4 in Isolated Perfused Rat Liver Model Using Tramadol” (Advanced Pharmaceutical Bulletin, 2020)
